Test results taken from the CheMixHub viscosity set.

Experiment: xn = mol fraction of the nth substance listed

CCCCCCCC/C=C\CCCCCCCCO + CC(C)[C@@H]1CC[C@@H](C)C[C@H]1O
100 kPa, x2 = 0.5
Settings	viscosity [mPa·s]
298.13 K	19.79
298.15 K	19.76
303.15 K	14.47
313.13 K	9.11
323.12 K	5.98

CC(=O)OCCC(C)C + CCCCCC
viscosity [mPa·s], 101 kPa
Settings	298.15 K	308.15 K
x1 = 0.0521	0.303	0.286
x1 = 0.149	0.328	0.313
x1 = 0.2509	0.358	0.345
x1 = 0.3492	0.391	0.38
x1 = 0.4851	0.445	0.435
x1 = 0.5317	0.466	0.456
x1 = 0.5507	0.475	0.464
x1 = 0.6504	0.526	0.514
x1 = 0.7492	0.585	0.57
x1 = 0.8506	0.655	0.635
x1 = 0.9546	0.74	0.711

CCCCCCCC/C=C\CCCCCCCC(=O)OCC + CCCCCCCCCCCCCCCC
viscosity [mPa·s], 100 kPa
Settings	x1 = 0.1	x1 = 0.2	x1 = 0.3	x1 = 0.4	x1 = 0.5	x1 = 0.6	x1 = 0.7	x1 = 0.8	x1 = 0.9
293.15 K	3.595	3.805	4.056	4.336	4.643	4.964	5.309	5.671	6.032
298.15 K	3.195	3.382	3.599	3.849	4.12	4.405	4.704	5.019	5.335
303.15 K	2.852	3.009	3.2	3.422	3.657	3.906	4.163	4.434	4.708
308.15 K	2.56	2.705	2.873	3.065	3.269	3.485	3.71	3.946	4.185
313.15 K	2.314	2.443	2.589	2.755	2.928	3.113	3.306	3.508	3.715
318.15 K	2.1	2.217	2.351	2.504	2.662	2.83	3.004	3.186	3.372
323.15 K	1.917	2.023	2.144	2.28	2.421	2.571	2.723	2.887	3.053

O=C(O)C1CCCCC1 + CCCCCCCCCCO
viscosity [mPa·s], 101 kPa
Settings	310 K	320 K
x2 = 0.0377	12.1	8.54
x2 = 0.0625	11.8	8.32
x2 = 0.1776	10.6	7.57
x2 = 0.2753	9.61	6.94
x2 = 0.4103	8.79	6.39
x2 = 0.4952	8.45	6.15
x2 = 0.5659	8.15	5.94
x2 = 0.6678	7.86	5.72
x2 = 0.7657	7.7	5.6
x2 = 0.8462	7.48	5.48
x2 = 0.9063	7.43	5.36
x2 = 0.9593	7.41	5.3
